This note sets out measurements from patent publication US8658592B2, “Biologically active peptides and their new uses” (priority 2005, dated 2014).

Marks after values point to notes of the source that are not given here. Square brackets hold non-standard residues; d marks the D form. Ends that are not written are not given here. Tyr(3,5-Br2) = N[C@@H](Cc1cc(Br)c(O)c(Br)c1)C(=O)O; Nle = CCCC[C@H](N)C(=O)O

The test system of test [1] is human gastric carcinoma BGC-823 xenograft. The test is described as follows: nude mice-transplanted human gastric carcinoma BGC-823 xenograft. To be noted: 30 days. The format is in vivo, BALB/c (nu/nu) nude mice. As for the experimental part:
Hunan gastric carcinoma cell line BGC-823 at log phase were adjusted to the concentration of 2×10^7/ml and then inoculated subcutaneously to the back of nude mice (0.1 ml per mouse). The inoculated animals were randomized into groups of CMS024-16 (160 μg/kg/day, 320 μg/kg/day, and 640 μg/kg/day, all at 0.2 ml/day), positive control (5-Fu, 20 mg/kg/day at 0.2 ml/day), and negative control (normal saline, 0.2 ml/day). Administration of test substances by intraperitoneal injection was started on the next day after tumor implantation once per day for 30 continuous days. On the next day after the last injection, the tumor masses were collected and their weights determined Inhibition rate=(Mean weight of negative control−Mean weight of test group)/(Mean weight of negative control)×100%

The next test has as its system hepatocarcinoma H22. The test is described as follows: survival of mice transplanted with H22 hepatocarcinoma. Particulars: for survival of mice transplanted with H22 tumor cells: 80 μg/kg/day, vs saline control P<0.05. The format is in vivo, BALB/c mice. As for the experimental part: Healthy BALB/c mice were randomized into groups of CMS-024.04, CMS-025.05, CMS-024.14, and CMS-024.16 (80 μg/kg/day), 5-Fu (20 mg/kg/day, once for every two days), saline (0.2 ml/day), and normal group (without tumor cell inoculation).
Mice inoculated with hepatocarcinomas for 6-8 days were sacrificed. The ascites was collected and the cell concentration adjusted to 5×10^7/ml with D-Hanks' solution. 0.2 ml of this was inoculated intraperitoneally to each BALB/c mouse except for the normal controls.
Administration of test substance was started on the next day after the tumor cell inoculation. The peptides and saline were applied daily and 5-FU once every two days for 60 continuous days or until the death of the mice.
The time of death was recorded and survival time prolongation calculated. Survival time prolongation was calculated as below: Survival prolongation (%)=(Average survival days of test group)−(Average survival days of saline control group)/(Average survival days of saline group)×100%.

Test [2] relates to Balb/c mice swimming time model. The test is described as follows: exhaustive swimming time of mice (Example 11). The format is in vivo. As for the experimental part: Balb/c male mice were randomized into groups of CMS-001.30 (20 μg/kg/day), CMS-001.31 (20 μg/kg/day), EPO (1000 u/kg/day, three times per week), and saline control. The test substance was dissolved in 0.5 ml saline and applied intraperitoneally once per day for 30 continuous days (EPO was replaced with saline if EPO was not applied). On the tenth day, the mice were trained to swim for 10 min at water temperature of 25±1° C. 30 min after the last test substance administration, the mice were placed to swim in the swimming tank (50 cm×50 cm×40 cm). The depth of water was 30 cm and water temperature 25±1° C. The limbs of the mice were kept moving in the whole process. The swimming (min) time of the mice until death was recorded. Exhaustive swimming time extension rate (ESTR) (%)=(Mean exhaustive swimming time of test group−Mean exhaustive swimming time of saline control)/(Mean exhaustive swimming time of saline control)×100%. 1.4 Statisitics

For test [3], the system named is BALB/c mice exhaustive swimming model. Put plainly: exhaustive swimming time of mice. In kind it is in vivo. Particulars: 30 days. As for the experimental part: (§1) The mice were randomized into groups of CMS-001 (20 μg/kg/day, 5 μg/kg/day), CMS-008 (500 μg/kg/day, 125 μg/kg/day), and saline control. The test substance was administered by intraperitoneal injection once per day for 30 continuous days. A week after the start the of the test substance administration, the mice were trained to swim for 10 min, at water temperature of 25±1° C.
30 min after the last injection, the mice were weighed, and lead pieces corresponding to 5% of the body weight were wrapped to the tails of the mice at about 1 cm away from the body. The mice were placed in the swimming tank, at water depth of 30 cm and temperature of 25±1° C. The limbs of the mice were kept moving in the whole process. The time of swimming until the death was recorded.

Test [4] has as its system BALB/c mice. Put plainly: blood lactic acid level of mice after exercise. The format is in vivo. To be noted: for Lactic acid elimination after rest: 20 min rest. As for the experimental part: as §1
30 min after the last injection, 20 μl of blood was first collected from the orbital sinus. The mice were then weighed, and lead pieces corresponding to 4% of the body weight were wrapped to the tails of the mice at about 1 cm away from the body. The mice were placed to swim in the swimming tank for 10 min, at water depth of 30 cm and temperature of 30±1° C. The limbs of the mice were kept moving in the whole process. Immediately after the exercise and after resting for 20 min, 20 μl of blood was collected from the orbital sinus again. The blood was added into 40 μl hypotonic buffer and sonicated. Lactic acid level in the blood was determined by the lactic acid analyzer.
The amount of lactic acid increase after exercise is calculated based on the amount of lactic acid level immediately after exercise minus the lactic acid level before exercise.
The amount of lactic acid elimination after rest was calculated based on the amount of lactic acid level immediately after exercise minus the lactic acid level after rest.

In test [5] the test system is BALB/c mice. The test is described as follows: liver glycogen level of mice. The format is in vivo. As for the experimental part: The mice were randomized into groups of CMS-001 (20 μg/kg/day, 5 μg/kg/day), CMS-008 (500 μg/kg/day, 125 μg/kg/day), and saline control. The test substance was administered by intraperitoneal injection once per day for 30 continuous days. A week after the start the of the test substance administration, the mice were trained to swim for 10 min, at water temperature of 25±1° C. 30 min after the last injection, the mice were killed by cervical dislocation and the liver was dissected, washed with saline, and blotted dry with filter paper. About 100 mg liver was accurately weighed and the liver glycogen level was determined by the Anthracene Ketone reagent kit. Glycogen weight (mg) in every 100 g of liver=DU/DS×0.5×homogenization liquid vol./liver weight(g)×100×0.9.

The subject of test [6] is BALB/c mice. Put plainly: serum urea nitrogen level after exercise. The format is in vivo. As for the experimental part: as §1, with “C. 30 min after the last injection, the mice were placed to swim in the swimming tank without addition of weight for 90 min, at water depth of 30 cm temperature of 30±1° C. The mice were then allowed to rest for 30 min, and blood was collected from the orbital sinus. The serum was isolated and the BUN was determined by a fully automated Biochemistry Analyser.” for “C.”

Test [7] has as its system BALB/c mice. The test is described as follows: serum SOD, MDA, AST, ALT levels after exhaustive exercise. The format is in vivo. As for the experimental part: The mice were randomized into groups of CMS-001 (20 μg/kg/day, 5 μg/kg/day), CMS-008 (500 μg/kg/day, 125 μg/kg/day), and saline control. The test substance was administered by intraperitoneal injection once per day for 30 continuous days. A week after the start the of the test substance administration, the mice were trained to swim for 10 min, at water temperature of 25±1° C. 30 min after the last injection, the mice were placed to swim in the swimming tank without addition of weight at water depth of 30 cm and temperature of 25±1° C.^[4]. By the first time the mice sunk, the mice were rescued and blood was collected from the orbital sinus immediately. The serum was isolated and the MDA, SOD, AST, and ALT levels determined.

[8] abbreviates: Table 6.1 experiment, 20 mg/kg once every two days.
[9] abbreviates: Table 6.2 experiment, 20 mg/kg once every two days.
Where [10] appears, read: Table 6.2 experiment, 80 μg/kg daily i.p.
Where [11] appears, read: 1000 u/kg/day, 3 times per week.
Where [12] appears, read: Table 6.1 experiment, 80 μg/kg daily i.p.

Regarding `O=c1[nH]cc(F)c(=O)[nH]1` [5-Fu, 5-fluorouracil, reference compound], in test [1] (20 mg/Kg/day i.p.), the Inhibition rate is listed as 40.8* % and the Tumor weight worked out at 1.70 ± 0.70 g. Further, in the test on hepatocarcinoma H22 (setting [8]), the “Survival Prolongation” value is 84.5* %, the “Survival time (first column)” value is reported as 30.0 ± 2.0 days and the “Survival time (second column)” value is 32.5 ± 6.3 days. In the test on hepatocarcinoma H22 (setting [9]), the “Survival Prolongation” value stood at 33.3%, the “Survival time (first column)” value is on record as 18.0 ± 0.4 days and the “Survival time (second column)” value came out at 24.5 ± 11.1 days.
Consider “(3,5-dibromo-Tyr)-Ser-Leu ([Tyr(3,5-Br2)]-Ser-Leu) [CMS-024.14]”, for which the “survival of mice transplanted with H22 tumor cells” value (“survival of mice transplanted” for short) in the test on hepatocarcinoma H22 is recorded as “prolong the survival”. Further, in the test with hepatocarcinoma H22 (setting [10]), the “Survival Prolongation” value is on record as 50.3%, the “Survival time (first column)” value was found to be 16.0 ± 0.0 days and the “Survival time (second column)” value came out at 27.6 ± 8.5 days.
Regarding “Erythropoietin [EPO, reference compound]”, in test [2] (setting [11]), the “ESTR (exhaustive swimming time extension rate)” value (from here on “ESTR”) was 31.3* % and the Swimming time is 126.1 ± 20.4 min.
KAVGHLDDLPGAL [CMS-008]: in test [3] (125 μg/kg/day i.p.), the Swimming time stood at 106.5 ± 19.4 min and the Swimming-time extension is 57.9* %. In addition, in test [3] (500 μg/kg/day i.p.), the Swimming time was found to be 116.5 ± 17.7 min and the Swimming-time extension is 72.7* %. In the test on BALB/c mice [4] (125 μg/kg/day), the “Lactic acid increase after exercise” value was found to be 2.70 ± 0.15 mmol/L and the “Lactic acid elimination after rest” value was 3.62 ± 0.57 mmol/L. In the test with BALB/c mice [4] (500 μg/kg/day), the “Lactic acid increase after exercise” value turned out to be 2.23 ± 0.30 mmol/L and the “Lactic acid elimination after rest” value came out at 3.71 ± 0.22 mmol/L. In the test on BALB/c mice [5] (125 μg/kg/day), this molecule yielded a liver glycogen of 1275 ± 726 mg/100 g liver tissue. For the same molecule, the liver glycogen with BALB/c mice [5] (500 μg/kg/day) came out at 1408 ± 457 mg/100 g liver tissue. For the same molecule, the “Urea Nitrogen” value in the test on BALB/c mice [6] (125 μg/kg/day) is 7.2 ± 2.3 mmol/L. In addition, the “Urea Nitrogen” value in the test on BALB/c mice [6] (500 μg/kg/day) worked out at 7.1 ± 2.0 mmol/L. In the test with BALB/c mice [7] (500 μg/kg/day), this molecule had an ALT of 32.9 ± 5.2 U/L, an AST of 116.6 ± 18.8 U/L, an MDA of 4.1 ± 0.4 nmol/L and an SOD of 415.7 ± 31.5 U/ml.
“Leu-Tyr-Ser (LYS; Synthetically prepared peptide sequence) [CMS-024.16]”: in test [1] (160 μg/Kg/day i.p.), the Inhibition rate is reported as 54.0* % and the Tumor weight was 1.32 ± 0.68 g. Also, in test [1] (320 μg/Kg/day i.p.), the Inhibition rate is 44.7* % and the Tumor weight was 1.59 ± 1.017 g. In test [1] (640 μg/Kg/day i.p.), the Inhibition rate was 54.4* % and the Tumor weight stood at 1.31 ± 0.77 g. Further, the “survival of mice transplanted” value in the test with hepatocarcinoma H22 is on record as “prolong the survival”. In the test with hepatocarcinoma H22 (setting [10]), the “Survival Prolongation” value worked out at 57.8%, the “Survival time (first column)” value turned out to be 18.0 ± 1.0 days and the “Survival time (second column)” value was determined as 29.0 ± 7.9 days.
PTTKTY [CMS-001.30]: the “ESTR” value in test [2] (20 μg/kg/day i.p., 30 days) was 88.3* %.
As to PTTKTYFP [CMS-001.31], the “ESTR” value in test [2] (20 μg/kg/day i.p., 30 days) is listed as 76.0* %.
Take PTTKTYFPHF [CMS-001]: in test [3] (5 μg/kg/day i.p.), the Swimming time is recorded as 105.7 ± 19.8 min and the Swimming-time extension is 56.7* %. In test [3] (20 μg/kg/day i.p.), the Swimming time is reported as 99.8 ± 30.6 min and the Swimming-time extension is on record as 48.0* %. Besides, in the test on BALB/c mice [4] (5 μg/kg/day), the “Lactic acid increase after exercise” value worked out at 2.60 ± 0.33 mmol/L and the “Lactic acid elimination after rest” value is 2.96 ± 0.33 mmol/L. In the test on BALB/c mice [4] (20 μg/kg/day), the “Lactic acid increase after exercise” value worked out at 2.56 ± 0.41 mmol/L and the “Lactic acid elimination after rest” value worked out at 3.14 ± 0.64 mmol/L. The molecule further yielded a liver glycogen with BALB/c mice [5] (5 μg/kg/day) of 439 ± 271 mg/100 g liver tissue. The same molecule gave a liver glycogen with BALB/c mice [5] (20 μg/kg/day) of 1567 ± 604 mg/100 g liver tissue. Also, the “Urea Nitrogen” value in the test with BALB/c mice [6] (5 μg/kg/day) was 6.9 ± 1.6 mmol/L. Moreover, the “Urea Nitrogen” value with BALB/c mice [6] (20 μg/kg/day) was 7.3 ± 2.1 mmol/L. Further, in the test on BALB/c mice [7] (20 μg/kg/day), the ALT worked out at 32.7 ± 3.0 U/L, the AST was determined as 117.0 ± 19.2 U/L, the MDA worked out at 4.4 ± 0.2 nmol/L and the SOD is reported as 400.6 ± 45.6 U/ml.
With “Tyr-Ser-Nle (Tyr-Ser-[Nle]) [CMS-024.04, Nle = norleucine (2-aminohexanoic acid)]”, the “survival of mice transplanted” value with hepatocarcinoma H22 is “prolong the survival”. Moreover, in the test on hepatocarcinoma H22 (setting [12]), the “Survival Prolongation” value is reported as 15.8* %, the “Survival time (first column)” value is reported as 19.0 ± 0.9 days and the “Survival time (second column)” value is 20.2 ± 4.4 days.
For “Tyr-Thr-Val (YTV; Synthetically prepared peptide sequence) [CMS-024.05]”, in the test on hepatocarcinoma H22, the “survival of mice transplanted” value was “prolong the survival”. Besides, in the test with hepatocarcinoma H22 (setting [12]), the “Survival Prolongation” value is reported as 10.4* %, the “Survival time (first column)” value is 19.0 ± 1.0 days and the “Survival time (second column)” value came to 19.3 ± 2.4 days.
